In the assay the target is T1, human mAChR M4 (Homo sapiens, UniProt P08173).
T1 construct: expressed in transfected cells; host or cells: CHO-K1 (American Type Culture Collection), stably expressing hM4 and Gqi5
T1 sequence (P08173 1-479): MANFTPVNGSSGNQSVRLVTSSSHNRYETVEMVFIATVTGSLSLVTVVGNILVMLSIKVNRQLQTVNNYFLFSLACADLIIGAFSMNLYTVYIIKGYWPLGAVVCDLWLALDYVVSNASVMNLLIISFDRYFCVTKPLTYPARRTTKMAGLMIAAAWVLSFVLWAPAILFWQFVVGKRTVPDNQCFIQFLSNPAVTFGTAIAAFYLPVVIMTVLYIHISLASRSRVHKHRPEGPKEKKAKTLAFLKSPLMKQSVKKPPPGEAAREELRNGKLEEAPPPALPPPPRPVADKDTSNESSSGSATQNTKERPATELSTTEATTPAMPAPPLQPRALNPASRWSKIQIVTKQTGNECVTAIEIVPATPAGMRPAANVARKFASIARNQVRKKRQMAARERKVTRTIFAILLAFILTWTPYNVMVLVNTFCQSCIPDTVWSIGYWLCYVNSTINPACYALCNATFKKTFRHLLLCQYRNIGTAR
Put plainly: mAChR M4 cell-based functional assay: calcium mobilization (Fluo-4, FDSS), potentiation of EC20 acetylcholine response in hM4-Gqi5 CHO-K1 cells. Conditions: human M4; for Emax at 30 µM: CHO-K1, % ACh maximum at 30 μM; for pEC50: potentiation of EC20 acetylcholine response, calcium mobilization. The gist of the method:
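CHO-K1 cells stably co-expressing human M4 and chimeric Gqi5, loaded with Fluo-4 AM (50 min, 37 °C). Compounds in 11-point 1:3 series added first; EC20 acetylcholine added at 144 s and again at 230 s. Calcium read on FDSS at 1 Hz; EC50 and Emax from four-parameter logistic fit of potentiated EC20 response.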

The results in this text go back to patent US20250101041A1, “POSITIVE ALLOSTERIC MODULATORS OF THE MUSCARINIC ACETYLCHOLINE RECEPTOR M4” (Vanderbilt University, priority 2022, published 2025).

pEC50: −log10 of the molar value.

Broadly, the Emax is the greatest response seen or fitted, relative to the assay's reference. Usually pEC50 stands for the negative decadic logarithm of the EC50, by convention in mol/L.

Regarding `Cc1cc2nccc(=O)n2nc1N1CCc2ncc(Nc3ccnn3C)cc2C1` [Compound 2-8, 8-methyl-7-(3-((1-methyl-1H-pyrazol-5-yl)amino)-7,8-dihydro-1,6-naphthyridin-6(5H)-yl)-4H-pyrimido[1,2-b]pyridazin-4-one], the Emax at 30 µM is 84% and the pEC50 is 6.42.

Take `Cc1cc(=O)n2nc(N3CCc4ncc(-c5ccccc5C)cc4C3)c(C)c(C)c2n1` [Compound 1-137, 2,8,9-trimethyl-7-(3-(o-tolyl)-7,8-dihydro-1,6-naphthyridin-6(5H)-yl)-4H-pyrimido[1,2-b]pyridazin-4-one]: the Emax at 30 µM was 109% and the pEC50 was 5.76.

As for `Cc1cc(=O)n2nc(N3CCc4ncc(NCC5CCCOC5)cc4C3)c(C)c(C)c2n1` (stereo not shown) [Compound 2-44, 2,8,9-trimethyl-7-(3-(((tetrahydro-2H-pyran-3-yl)methyl)amino)-7,8-dihydro-1,6-naphthyridin-6(5H)-yl)-4H-pyrimido[1,2-b]pyridazin-4-one], the Emax at 30 µM is 65% and the pEC50 is 6.21.

On to `Cc1cc(=O)n2nc(N3CCc4ncc(-c5ccc(C(F)(F)F)nc5)cc4C3)c(C)c(C)c2n1` [Compound 1-130, 2,8,9-trimethyl-7-(3-(6-(trifluoromethyl)pyridin-3-yl)-7,8-dihydro-1,6-naphthyridin-6(5H)-yl)-4H-pyrimido[1,2-b]pyridazin-4-one], for which the Emax at 30 µM came out at 84% and the pEC50 was 5.09.

In the case of `Cc1cc(=O)n2nc(N3CCc4ncc(-c5cnn(C)c5C)cc4C3)c(C)c(C)c2n1` [Compound 1-185, 7-(3-(1,5-dimethyl-1H-pyrazol-4-yl)-7,8-dihydro-1,6-naphthyridin-6(5H)-yl)-2,8,9-trimethyl-4H-pyrimido[1,2-b]pyridazin-4-one], the maximal response (Emax) at 30 µM amounted to 86% and the pEC50 was 6.12.

Regarding `Cc1cc2nc(C(F)F)cc(=O)n2nc1N1CCc2ncc(-c3ccnn3C)cc2C1` [Compound 1-36, 2-(difluoromethyl)-8-methyl-7-(3-(1-methyl-1H-pyrazol-5-yl)-7,8-dihydro-1,6-naphthyridin-6(5H)-yl)-4H-pyrimido[1,2-b]pyridazin-4-one], the maximum response (Emax) at 30 µM was 96% and the negative logarithm of the EC50 (pEC50) is 7.12.

On to `COCc1cc(=O)n2nc(N3CCc4ncc(-c5cc(F)ccc5C)cc4C3)c(C)c(C)c2n1` [Compound 1-227, 7-(3-(5-fluoro-2-methylphenyl)-7,8-dihydro-1,6-naphthyridin-6(5H)-yl)-2-(methoxymethyl)-8,9-dimethyl-4H-pyrimido[1,2-b]pyridazin-4-one], for which the Emax at 30 µM was determined as 83% and the pEC50 was 6.87.

On to `Cc1ccc(-c2cnc3c(c2)CN(c2nn4c(=O)cc(C(F)(F)F)nc4cc2C)CC3)cn1` [Compound 1-80, 8-methyl-7-(3-(6-methylpyridin-3-yl)-7,8-dihydro-1,6-naphthyridin-6(5H)-yl)-2-(trifluoromethyl)-4H-pyrimido[1,2-b]pyridazin-4-one], for which the Emax at 30 µM is 104% and the pEC50 is 7.19.

On to `[2H]C1([2H])Cc2ncc(-c3ccnn3C)cc2C([2H])([2H])N1c1nn2c(=O)ccnc2cc1C` [Compound 1-449, 8-methyl-7-(3-(1-methyl-1H-pyrazol-5-yl)-7,8-dihydro-1,6-naphthyridin-6(5H)-yl-5,5,7,7-d4)-4H-pyrimido[1,2-b]pyridazin-4-one], for which the Emax at 30 µM is 93% and the pEC50 is 6.55.

Turning to `COc1cnccc1-c1cnc2c(c1)CN(c1nn3c(=O)cc(C)nc3cc1C)CC2` [Compound 1-259, 7-(3-(3-methoxypyridin-4-yl)-7,8-1,6-naphthyridin-6(5H)-yl)-2,8-dimethyl-4H-pyrimido[1,2-b]pyridazin-4-one], the Emax at 30 µM turned out to be 72% and the pEC50 was 6.35.

Regarding `Cc1ncc(-c2cnc3c(c2)CN(c2nn4c(=O)ccnc4cc2C)CC3)c(C)n1` [Compound 1-420, 7-(3-(2,4-dimethylpyrimidin-5-yl)-7,8-dihydro-1,6-naphthyridin-6(5H)-yl)-8-methyl-4H-pyrimido[1,6-b]pyridazin-4-one], the Emax at 30 µM is 93% and the pEC50 was 5.76.

Regarding `Cc1cc2nccc(=O)n2nc1N1CCc2ncc(NCc3cscn3)cc2C1` [Compound 2-130, 8-methyl-7-(3-((thiazol-4-ylmethyl)amino)-7,8-dihydro-1,6-naphthyridin-6(5H)-yl)-4H-pyrimido[1,2-b]pyridazin-4-one], the Emax at 30 µM was 87% and the pEC50 is 6.29.

Turning to `Cc1ccc(-c2cnc3c(c2)CN(c2nn4c(=O)ccnc4cc2C)CC3)nc1` [Compound 1-351, 8-methyl-7-(3-(5-methylpyridin-2-yl)-7,8-dihydro-1,6-naphthyridin-6(5H)-yl)-4H-pyrimido[1,2-b]pyridazin-4-one], the Emax at 30 µM amounted to 55% and the pEC50 is 6.37.

Regarding `Cc1cc(=O)n2nc(N3CCc4ncc(-c5cc(F)cc(F)c5F)cc4C3)c(C)c(C)c2n1` [Compound 1-273, 2,8,9-trimethyl-7-(3-(2,3,5-trifluorophenyl)-7,8-dihydro-1,6-naphthyridin-6(5H)-yl)-4H-pyrimido[1,2-b]pyridazin-4-one], the Emax at 30 µM is 75% and the pEC50 is 5.96.

With `Cc1cc(=O)n2nc(N3CCc4ncc(-c5ccc(CO)s5)cc4C3)c(C)cc2n1` [Compound 1-299, 7-(3-(5-(hydroxymethyl)thiophen-2-yl)-7,8-dihydro-1,6-naphthyridin-6(5H)-yl)-2,8-dimethyl-4H-pyrimido[1,2-b]pyridazin-4-one], the Emax at 30 µM worked out at 93% and the pEC50 was 7.39.

Regarding `Cc1c(N2CCc3ncc(-c4cc(F)ccc4F)cc3C2)nn2c(=O)ccnc2c1C` [Compound 1-345, 7-(3-(2,5-difluorophenyl)-7,8-dihydro-1,6-naphthyridin-6(5H)-yl)-8,9-dimethyl-4H-pyrimido[1,2-b]pyridazin-4-one], the Emax at 30 µM stood at 70% and the pEC50 was 6.70.

For the molecule `Cc1cc2nccc(=O)n2nc1N1CCc2ncc(Nc3ccc(F)nc3)cc2C1` [Compound 2-87, 7-(3-((6-fluoropyridin-3-yl)amino)-7,8-dihydro-1,6-naphthyridin-6(5H)-yl)-8-methyl-4H-pyrimido[1,2-b]pyridazin-4-one], the Emax at 30 µM was 99% and the pEC50 was 6.64.

In the case of `Cc1cc2nccc(=O)n2nc1N1CCc2ncc(NCC3CC3)cc2C1` [Compound 2-89, 7-(3-((cyclopropylmethyl)amino)-7,8-dihydro-1,6-naphthyridin-6(5H)-yl)-8-methyl-4H-pyrimido[1,2-b]pyridazin-4-one], the Emax at 30 µM is 93% and the pEC50 is 6.48.

Turning to `Cc1cc(=O)n2nc(N3CCc4ncc(-c5ccccc5Cl)cc4C3)c(C)cc2n1` [Compound 1-256, 7-(3-(2-chlorophenyl)-7,8-dihydro-1,6-naphthyridin-6(5H)-yl)-2,8-dimethyl-4H-pyrimido[1,2-b]pyridazin-4-one], the Emax at 30 µM worked out at 71% and the pEC50 is 6.24.

With `Cc1cc2nccc(=O)n2nc1N1CCc2ncc(-c3cccnc3F)cc2C1` [Compound 1-58, 7-(3-(2-fluoropyridin-3-yl)-7,8-dihydro-1,6-naphthyridin-6(5H)-yl)-8-methyl-4H-pyrimido[1,2-b]pyridazin-4-one], the Emax at 30 µM turned out to be 88% and the pEC50 is 6.40.
